Measured values: patent US8697661B2, “Use of spinosyns and spinosyn compositions against herpesviridae viral infections” (priority 2009, dated 2014)

Experiments:
[1] = tested on: Cytomegalovirus, Davis Strain-CMV; assay: Inhibition of Cytomegalovirus in HS27 fibroblasts; conditions: 4.75 μg/ml spinosad, virus load of 50-100 infectious units, HS27 cells
[2] = tested on: pancreatic tumor xenograph; assay: Mouse pancreatic tumor xenograph assay; type: in vivo; conditions: for tumor volume on day1: baseline
[3] = mouse code 3, total spinosad dosed 390 mg/kg i.p. over 20 days
[4] = mouse code 6, total spinosad dosed 360 mg/kg i.p. over 20 days
[5] = mouse code 9, total spinosad dosed 540 mg/kg i.p. over 20 days
[6] = mouse code 10, total spinosad dosed 540 mg/kg i.p. over 20 days
[7] = mouse code 12, total spinosad dosed 615 mg/kg i.p. over 20 days
[8] = mouse code 13, total spinosad dosed 585 mg/kg i.p. over 20 days

## Spinosad
[1]
  inhibition of virus: no inhibition
[2]; CD-1 athymic nude male mice, spinosad in DMSO i.p., on top of weight loss by DMSO alone
  body weight: some weight loss
[2]; mouse code 3, total spinosad dosed 390 mg/kg
  % difference of tumor volume day 21 vs day1: −42%
[2]; [3]
  tumor volume on day 21: 107.7 mm^3
  tumor volume on day1: 184.7 mm^3
[2]; mouse code 6, total spinosad dosed 360 mg/kg
  % difference of tumor volume day 21 vs day1: −2%
[2]; [4]
  tumor volume on day 21: 254.7 mm^3
  tumor volume on day1: 260.6 mm^3
[2]; mouse code 9, total spinosad dosed 540 mg/kg
  % difference of tumor volume day 21 vs day1: −33%
[2]; [5]
  tumor volume on day 21: 119.8 mm^3
  tumor volume on day1: 179.9 mm^3
[2]; mouse code 10, total spinosad dosed 540 mg/kg
  % difference of tumor volume day 21 vs day1: −44%
[2]; [6]
  tumor volume on day 21: 128.9 mm^3
  tumor volume on day1: 228.9 mm^3
[2]; mouse code 12, total spinosad dosed 615 mg/kg
  % difference of tumor volume day 21 vs day1: −11%
[2]; [7]
  tumor volume on day 21: 142.1 mm^3
  tumor volume on day1: 159.4 mm^3
[2]; mouse code 13, total spinosad dosed 585 mg/kg
  % difference of tumor volume day 21 vs day1: 6%
[2]; [8]
  tumor volume on day 21: 246.5 mm^3
  tumor volume on day1: 233.3 mm^3
[2]; spinosad treated group (6 mice), total 360-615 mg/kg i.p. over 20 days, day 21 vs day1, DMSO control 54%, P < 0.02
  mean volume change: −21%
[2]; spinosad treated group, 21st day, control/DMSO group increased 54%, P-value <0.02
  mean tumor volume decreased by: 21%
